# From patent US10689354B2, “Aminoazole derivative” (Teijin Pharma Limited, priority 2015, dated 2020)
# How the values were obtained:
# [1] = molecular target: T1, androgen receptor (AR-LBD) (Rattus norvegicus, UniProt P15207); assay: Evaluation of androgen receptor affinity (PolarScreen Androgen Receptor Competitor Assay Kit, Red; fluorescence polarization); conditions: 22° C. for 5 hours, relative to binding rate of 1 μM DHT, read-out: AR affinity (pEC50) (converted)
# T1 construct: 5 μL of 2×AR-LBD/Fluoromone AL Red Complex contained in the kit; purchased Invitrogen
# T1 sequence (P15207 651-882 limits assumed): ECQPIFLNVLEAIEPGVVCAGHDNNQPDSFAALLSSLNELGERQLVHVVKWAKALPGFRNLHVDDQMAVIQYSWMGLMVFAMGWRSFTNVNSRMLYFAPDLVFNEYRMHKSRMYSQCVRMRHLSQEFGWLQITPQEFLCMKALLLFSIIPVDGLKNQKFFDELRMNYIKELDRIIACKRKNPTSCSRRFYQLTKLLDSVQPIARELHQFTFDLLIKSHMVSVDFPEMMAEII
# Method in brief: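 Fluorescence polarization competition assay: compound was incubated in duplicate with the kit's AR-LBD/Fluoromone AL Red complex for 5 h at 22 °C. Binding was expressed relative to 1 μM DHT, and pEC50 was derived by 4-parameter fit.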
# human androgen receptor = molecular target: T2, human androgen receptor (Homo sapiens, UniProt P10275); assay: Reporter assay of an androgen receptor responsive sequence (luciferase, transiently transfected HEK293 cells); type: cell-based; conditions: 24 hours incubation, relative to activity of 100 nM DHT, read-out: AR transcriptive activity (pEC50) (converted)
# T2 construct: expressed in transfected cells; host or cells: HEK293
# T2 sequence (P10275 1-920): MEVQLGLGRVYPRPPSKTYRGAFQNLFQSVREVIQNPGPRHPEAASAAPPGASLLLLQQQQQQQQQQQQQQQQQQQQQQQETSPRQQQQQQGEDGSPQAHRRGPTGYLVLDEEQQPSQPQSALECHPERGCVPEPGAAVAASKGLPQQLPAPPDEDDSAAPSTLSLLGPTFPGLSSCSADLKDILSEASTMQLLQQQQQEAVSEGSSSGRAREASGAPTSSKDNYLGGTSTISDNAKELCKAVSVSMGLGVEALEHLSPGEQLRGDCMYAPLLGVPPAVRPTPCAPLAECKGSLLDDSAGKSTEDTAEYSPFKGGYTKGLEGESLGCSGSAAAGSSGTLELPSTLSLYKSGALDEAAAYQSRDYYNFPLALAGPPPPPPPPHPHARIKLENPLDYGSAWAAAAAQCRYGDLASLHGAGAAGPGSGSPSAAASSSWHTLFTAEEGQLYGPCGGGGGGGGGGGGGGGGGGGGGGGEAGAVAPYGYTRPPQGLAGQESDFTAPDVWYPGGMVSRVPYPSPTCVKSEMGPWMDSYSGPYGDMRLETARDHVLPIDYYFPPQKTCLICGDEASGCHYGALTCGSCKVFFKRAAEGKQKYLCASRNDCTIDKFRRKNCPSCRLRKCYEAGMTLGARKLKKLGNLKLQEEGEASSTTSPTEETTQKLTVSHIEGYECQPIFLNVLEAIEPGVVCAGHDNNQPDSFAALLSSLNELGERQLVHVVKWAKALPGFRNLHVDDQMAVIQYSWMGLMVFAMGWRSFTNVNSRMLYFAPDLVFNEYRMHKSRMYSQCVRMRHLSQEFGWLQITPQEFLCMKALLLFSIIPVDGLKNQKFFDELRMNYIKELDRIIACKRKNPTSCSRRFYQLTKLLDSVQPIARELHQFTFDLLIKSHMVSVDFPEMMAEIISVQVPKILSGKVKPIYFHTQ
# Method in brief: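 HEK293 cells transiently transfected for 3 h with ARE-firefly luciferase, full-length human AR and TK-Renilla plasmids, then exposed to compound for 24 h at 37 °C in 5% charcoal-treated FBS/DMEM. Dual-Glo luminescence read; pEC50 from 4-parameter fit relative to 100 nM DHT.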
SMILES,EC50 [1] [nM],EC50 (human androgen receptor) [nM]
"COCCCS(=O)(=O)NC(=O)c1nc(N(Cc2ccc(C(F)(F)F)nc2)c2ccc(C#N)cc2)sc1C1CC1 [Compound 663, 2-[4-cyano-N-[[6-(trifluoromethyl)-3-pyridyl]methyl]anilino]-5-cyclopropyl-N-(3-methoxypropylsulfonyl)thiazole-4-carboxamide]",251,> 10000
"COCCCS(=O)(=O)NC(=O)c1nc(N(Cc2ccc(OC(F)F)cc2)c2ccc(C#N)cc2)sc1C1CC1 [Compound 666, 2-[4-cyano-N-[[4-(difluoromethoxy)phenyl]methyl]anilino]-5-cyclopropyl-N-(3-methoxypropylsulfonyl)thiazole-4-carboxamide]",39.8,> 10000
"Cc1sc(N(CCc2cccc(Cl)c2)Cc2ccccc2)nc1C(=O)NS(C)(=O)=O [Compound 671, 2-[benzyl-[2-(3-chlorophenyl)ethyl]amino]-5-methyl-N-methylsulfonyl-thiazole-4-carboxamide]",50.1,1580
"Cc1sc(N(CCc2cccc(C#N)c2)Cc2ccccc2)nc1C(=O)NS(C)(=O)=O [Compound 672, 2-[benzyl-[2-(3-cyanophenyl)ethyl]amino]-5-methyl-N-methylsulfonyl-thiazole-4-carboxamide]",251,1260
"Cc1sc(N(Cc2ccc(Cl)cc2)Cc2csc3cc(C(F)(F)F)ccc23)nc1C(=O)NS(C)(=O)=O [Compound 677, 2-[(4-chlorophenyl)methyl-[[6-(trifluoromethyl)benzothiophen-3-yl]methyl]amino]-5-methyl-N-methylsulfonyl-thiazole-4-carboxamide]",> 2000,> 10000
"Cc1sc(N(CCC2CCCC2)Cc2ccccc2)nc1C(=O)NS(C)(=O)=O [Compound 683, 2-[benzyl(2-cyclopentylethyl)amino]-5-methyl-N-methylsulfonyl-thiazole-4-carboxamide]",100,> 10000
"Cc1sc(N(CCc2cccc(F)c2)Cc2ccccc2)nc1C(=O)NS(C)(=O)=O [Compound 685, 2-[benzyl-[2-(3-fluorophenyl)ethyl]amino]-5-methyl-N-methylsulfonyl-thiazole-4-carboxamide]",50.1,316
"CCS(=O)(=O)NC(=O)c1nc(N(CCc2ccc(Cl)cc2)Cc2ccc(Cl)cc2)sc1C [Compound 693, 2-[2-(4-chlorophenyl)ethyl-[(4-chlorophenyl)methyl]amino]-N-ethylsulfonyl-5-methyl-thiazole-4-carboxamide]",31.6,200
"Cc1sc(N(CCc2ccc(Cl)cc2)Cc2ccc(Cl)cc2)nc1C(=O)NS(=O)(=O)C1CC1 [Compound 694, 2-[2-(4-chlorophenyl)ethyl-[(4-chlorophenyl)methyl]amino]-N-cyclopropylsulfonyl-5-methyl-thiazole-4-carboxamide]",63.1,3160
"Cc1sc(N(CCc2ccc(Cl)cc2)Cc2ccc(Cl)cc2)nc1C(=O)NS(=O)(=O)Cc1cccnc1 [Compound 695, 2-[2-(4-chlorophenyl)ethyl-[(4-chlorophenyl)methyl]amino]-5-methyl-N-(3-pyridylmethylsulfonyl)thiazole-4-carboxamide]",25.1,63.1
"Cc1sc(N(CCc2ccc(Cl)cc2)CC2CCCCC2)nc1C(=O)NS(=O)(=O)Cc1cccnc1 [Compound 699, 2-[2-(4-chlorophenyl)ethyl-(cyclohexylmethyl)amino]-5-methyl-N-(3-pyridylmethylsulfonyl)thiazole-4-carboxamide]",63.1,> 10000
"CCS(=O)(=O)NC(=O)c1nc(N(CCc2ccc(Cl)cc2)Cc2ccc(OC(F)(F)F)cc2)sc1C [Compound 701, 2-[2-(4-chlorophenyl)ethyl-[[4-(trifluoromethoxy)phenyl]methyl]amino]-N-ethylsulfonyl-5-methyl-thiazole-4-carboxamide]",63.1,1260
"Cc1sc(N(CCc2ccc(Cl)cc2)Cc2ccc(OC(F)(F)F)cc2)nc1C(=O)NS(=O)(=O)Cc1cccnc1 [Compound 703, 2-[2-(4-chlorophenyl)ethyl-[[4-(trifluoromethoxy)phenyl]methyl]amino]-5-methyl-N-(3-pyridylmethylsulfonyl)thiazole-4-carboxamide]",31.6,158
"Cc1sc(N(CCc2ccc(Cl)cc2)Cc2ccc(OC(F)(F)F)cc2)nc1C(=O)NS(=O)(=O)C(F)(F)F [Compound 704, 2-[2-(4-chlorophenyl)ethyl-[[4-(trifluoromethoxy)phenyl]methyl]amino]-5-methyl-N-(trifluoromethylsulfonyl)thiazole-4-carboxamide]",316,> 10000

# The next lines start with the values.
EC50 [1] [nM],EC50 (human androgen receptor) [nM],SMILES
20,5010,"CS(=O)(=O)NC(=O)c1nc(N(Cc2ccc(OC(F)F)cc2)c2ccc(C#N)cc2)sc1C1CC1 [Compound 662, 2-[4-cyano-N-[[4-(difluoromethoxy)phenyl]methyl]anilino]-5-cyclopropyl-N-methylsulfonyl-thiazole-4-carboxamide]"
158,> 10000,"COCCCS(=O)(=O)NC(=O)c1nc(N(Cc2ccccc2)c2ccc(C#N)cc2)sc1C1CC1 [Compound 664, 2-(N-benzyl-4-cyano-anilino)-5-cyclopropyl-N-(3-methoxypropylsulfonyl)thiazole-4-carboxamide]"
20,> 10000,"COCCCS(=O)(=O)NC(=O)c1nc(N(Cc2ccc(Cl)cc2)c2ccc(C#N)cc2)sc1C1CC1 [Compound 665, 2-[N-[(4-chlorophenyl)methyl]-4-cyano-anilino]-5-cyclopropyl-N-(3-methoxypropylsulfonyl)thiazole-4-carboxamide]"
50.1,1580,"COc1ccc(CCN(Cc2ccccc2)c2nc(C(=O)NS(C)(=O)=O)c(C)s2)cc1 [Compound 678, 2-[benzyl-[2-(4-methoxyphenyl)ethyl]amino]-5-methyl-N-methylsulfonyl-thiazole-4-carboxamide]"
39.8,251,"Cc1sc(N(CCc2ccc(OC(F)(F)F)cc2)Cc2ccccc2)nc1C(=O)NS(C)(=O)=O [Compound 684, 2-[benzyl-[2-[4-(trifluoromethoxy)phenyl]ethyl]amino]-5-methyl-N-methylsulfonyl-thiazole-4-carboxamide]"
20,79.4,"Cc1sc(N(CCc2ccc(Cl)cc2)Cc2ccc(Cl)cc2)nc1C(=O)NS(C)(=O)=O [Compound 692, 2-[2-(4-chlorophenyl)ethyl-[(4-chlorophenyl)methyl]amino]-5-methyl-N-methylsulfonyl-thiazole-4-carboxamide]"
200,631,"Cc1sc(N(CCc2ccc(Cl)cc2)Cc2ccc(Cl)cc2)nc1C(=O)NS(=O)(=O)C(F)(F)F [Compound 696, 2-[2-(4-chlorophenyl)ethyl-[(4-chlorophenyl)methyl]amino]-5-methyl-N-(trifluoromethylsulfonyl)thiazole-4-carboxamide]"
251,> 10000,"Cc1sc(N(CCc2ccc(Cl)cc2)CC2CCCCC2)nc1C(=O)NS(C)(=O)=O [Compound 697, 2-[2-(4-chlorophenyl)ethyl-(cyclohexylmethyl)amino]-5-methyl-N-methylsulfonyl-thiazole-4-carboxamide]"
200,> 10000,"Cc1sc(N(CCc2ccc(Cl)cc2)Cc2ccc(OC(F)(F)F)cc2)nc1C(=O)NS(=O)(=O)C1CC1 [Compound 702, 2-[2-(4-chlorophenyl)ethyl-[[4-(trifluoromethoxy)phenyl]methyl]amino]-N-cyclopropylsulfonyl-5-methyl-thiazole-4-carboxamide]"
79.4,501,"Cc1sc(N(CCc2ccc3c(c2)OCO3)Cc2ccccc2)nc1C(=O)NS(C)(=O)=O [Compound 708, 2-[2-(1,3-benzodioxol-5-yl)ethyl-benzyl-amino]-5-methyl-N-methylsulfonyl-thiazole-4-carboxamide]"
